Columns and labels:
[1] = biological target: T1, AHR (aryl hydrocarbon receptor) (Homo sapiens, UniProt P35869); test: Transactivation of AHR (unknown origin) assessed as induction of CYP450 at 3 uM relative to control; format: ADME; details: read-out: FC
T1 sequence (P35869 whole entry): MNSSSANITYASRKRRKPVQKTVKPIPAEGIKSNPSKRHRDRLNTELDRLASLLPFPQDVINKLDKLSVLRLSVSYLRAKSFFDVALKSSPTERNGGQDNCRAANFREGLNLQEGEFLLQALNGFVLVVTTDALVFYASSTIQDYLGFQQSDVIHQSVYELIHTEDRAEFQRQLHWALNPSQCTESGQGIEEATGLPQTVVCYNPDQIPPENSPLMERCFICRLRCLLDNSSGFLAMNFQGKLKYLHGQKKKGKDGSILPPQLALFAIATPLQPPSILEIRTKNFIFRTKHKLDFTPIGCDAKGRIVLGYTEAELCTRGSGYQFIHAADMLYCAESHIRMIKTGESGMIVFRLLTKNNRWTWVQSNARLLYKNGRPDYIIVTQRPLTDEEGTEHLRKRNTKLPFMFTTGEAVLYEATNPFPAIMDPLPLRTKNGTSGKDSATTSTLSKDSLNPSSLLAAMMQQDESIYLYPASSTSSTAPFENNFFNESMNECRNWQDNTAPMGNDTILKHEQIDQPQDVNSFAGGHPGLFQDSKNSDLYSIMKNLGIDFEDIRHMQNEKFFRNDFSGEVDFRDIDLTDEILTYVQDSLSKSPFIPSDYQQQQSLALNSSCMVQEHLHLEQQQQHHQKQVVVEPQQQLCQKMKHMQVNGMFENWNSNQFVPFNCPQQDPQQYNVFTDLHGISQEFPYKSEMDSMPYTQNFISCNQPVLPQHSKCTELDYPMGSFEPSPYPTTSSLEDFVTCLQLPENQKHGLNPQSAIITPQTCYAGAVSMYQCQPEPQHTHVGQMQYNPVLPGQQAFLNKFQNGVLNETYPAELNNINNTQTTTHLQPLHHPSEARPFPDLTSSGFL

[2] = Half life in cynomolgus monkey at 0.5 mg/kg, iv; format: ADME, organism-based, Macaca fascicularis; details: in vivo

## Cc1cc(C[C@@H](NC(=O)N2CCC3(CC2)OC(=O)Nc2ncccc23)C(=O)N[C@@H](CC2CCNCC2)C(=O)N2CCN(c3ccncc3)CC2)cc2cn[nH]c12 [HTL-0022562]
[1]
  fold induction at 3 µM: 1.4
[2]
  half-life: 5.3 h

Source: ChEMBL document CHEMBL4610123, “Structure-Based Drug Discovery of N-((R)-3-(7-Methyl-1H-indazol-5-yl)-1-oxo-1-(((S)-1-oxo-3-(piperidin-4-yl)-1-(4-(pyridin-4-yl)piperazin-1-yl)propan-2-yl)amino)propan-2-yl)-2'-oxo-1',2'-dihydrospiro[piperidine-4,4'-pyrido[2,3-d][1,3]oxazine]-1-carboxamide (HTL22562): A Calcitonin Gene-Related …” (J Med Chem, 2020)
